A word on the EC50: it is the concentration needed to bring the measured effect to its halfway point.

4 molecules from US9926377B2, “Anti-GPC3 antibodies and immunoconjugates” (GENENTECH, INC., priority 2014, dated 2018) can be followed below.

Read-outs that look alike come from different tables or passages of the source.

In one assay the test system is 293S. Description: Cell line sensitivity (proliferation, CellTiter-GloII), 293S. The class given is cell-based. To be noted: 120 h. As to the method: (§1) Various GPC3-expressing cell lines were tested for sensitivity to free nemorubicin derivative, PNU-159682, which has the structure:
(§2) [drawing 32] as follows. Proliferation in the presence of PNU-159682 or SG-2057 were assessed using cells plated at 1000 cells per well in 50 μl of normal growth medium in 96-well clear-bottom plates (PerkinElmer Life Sciences). Twenty-four hours later, an additional 50 μl of culture medium with serial dilutions of the drug was added to triplicate wells. Three or 5 days later, cell numbers were determined using CellTiter-GloII (Promega Corp.) and with an EnVision 2101 multilabel reader (PerkinElmer).
On the technique in general: In ATP-based viability assays light output follows the ATP content of the culture.

Another assay concerns 293_GPC3. Description: Cell line sensitivity (proliferation, CellTiter-GloII), 293_GPC3. The assay is classed as cell-based. To be noted: 120 h. As to the method: as §1, §2
Another assay relates to PC3. Nature of the assay: Cell line sensitivity (proliferation, CellTiter-GloII), PC3. The assay is classed as cell-based. As to conditions: Homo sapiens, PC-3, 120 h. As to the method: as §1, §2
A further assay concerns Hep3B.2.1-7. Description: Cell line sensitivity (proliferation, CellTiter-GloII), Hep3B.2.1-7. As to conditions: 120 h. The class given is cell-based. As to the method: as §1, §2
The next assay relates to Huh7. Nature of the assay: Cell line sensitivity (proliferation, CellTiter-GloII), Huh7. To be noted: Homo sapiens, Huh-7, 120 h. The class given is cell-based. As to the method: as §1, §2
In the next assay the test system is HepG2. Description: Cell line sensitivity (proliferation, CellTiter-GloII), HepG2. The class given is cell-based. To be noted: Homo sapiens. As to the method:
as §1, §2

The test system of a further assay is JHH7. Nature of the assay: Cell line sensitivity (proliferation, CellTiter-GloII), JHH7. The class given is cell-based. As to the method:
as §1, §2

The subject of the next assay is JHH5. Nature of the assay: Cell line sensitivity (proliferation, CellTiter-GloII), JHH5. The class given is cell-based. As to conditions: 120 h. As to the method: as §1, §2
Assay [1] has as its target T1, human GPC3 (Homo sapiens, UniProt P51654).
T1 construct: C-terminal glycophosphatidylinositol anchor (GPI link) (C); expressed in transfected cells; host or cells: 293 cells
T1 sequence (P51654 359-420): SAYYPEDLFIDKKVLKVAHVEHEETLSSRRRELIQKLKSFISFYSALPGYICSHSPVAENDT
Description: FACS binding to huGPC truncation constructs on 293 cells. As to conditions: huGPC(aa359-420) on 293 cells. From the text:
(§3) C-terminal truncation constructs of huGPC(aa359-589) were made to further refine the epitopes for antibodies 4A11 and 15G1. Three different […] truncations were made, comprising amino acids 359 to 420 of human GPC3, amino acids 359 to 470 of human GPC3, and amino acids 359 to 509 of human GPC3. The three C-terminal truncations each comprised an HSV N-terminal signal sequence (SS) and gD sequence (SEQ ID NO: 41) and C-terminal glycophosphatidylinositol anchor (GPI link). The huGPC truncation constructs were expressed on the surface of 293 cells and antibody binding was determined by FACS. An anti-gD was used as a positive control. Vector-transfected 293 cells were used as a negative control.
In general terms: Flow cytometry measures light scatter and fluorescence of single cells or particles in a stream.

For assay [2], the target named is T2, human GPC3 (Homo sapiens, UniProt P51654).
T2 construct: C-terminal glycophosphatidylinositol anchor (GPI link) (C); expressed in transfected cells; host or cells: 293 cells
T2 sequence (P51654 359-470): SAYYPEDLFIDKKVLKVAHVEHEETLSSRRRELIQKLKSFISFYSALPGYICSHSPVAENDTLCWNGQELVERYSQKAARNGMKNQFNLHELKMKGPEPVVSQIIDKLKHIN
The description is as above. To be noted: huGPC(aa359-470) on 293 cells.
Text: as §3

Assay [3] addresses T3, human GPC3 (Homo sapiens, UniProt P51654).
T3 construct: C-terminal glycophosphatidylinositol anchor (GPI link) (C); expressed in transfected cells; host or cells: 293 cells
T3 sequence (P51654 359-509): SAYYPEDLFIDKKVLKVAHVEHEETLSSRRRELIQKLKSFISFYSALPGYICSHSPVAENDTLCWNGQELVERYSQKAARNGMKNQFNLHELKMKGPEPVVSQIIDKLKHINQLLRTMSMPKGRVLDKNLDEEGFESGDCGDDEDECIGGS
Described as above. To be noted: huGPC(aa359-509) on 293 cells.
Text: as §3

Assay [4] addresses T4, human GPC3 (Homo sapiens, UniProt P51654).
T4 construct: C-terminal glycophosphatidylinositol anchor (GPI link) (C); expressed in transfected cells; host or cells: 293 cells
T4 sequence (P51654 359-559): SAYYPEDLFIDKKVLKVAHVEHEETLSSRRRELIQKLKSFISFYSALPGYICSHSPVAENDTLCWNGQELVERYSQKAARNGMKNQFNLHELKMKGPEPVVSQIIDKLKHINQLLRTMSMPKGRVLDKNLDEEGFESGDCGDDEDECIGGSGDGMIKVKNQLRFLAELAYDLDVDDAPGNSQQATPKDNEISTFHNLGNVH
The description is as above. As to conditions: huGPC(aa359-559) on 293 cells.
Text: as §3

The subject of assay [5] is full-length N-terminal gD-tagged cynomolgus monkey GPC3. Nature of the assay: FACS binding to cynomolgus monkey GPC3 on 293 cells. As to conditions: cynomolgus monkey GPC3 expressed on the surface of 293 cells. As to the method:
(§4) Antibodies 15G1 and 4A11 were tested for binding to full-length N-terminal gD-tagged cynomolgus monkey GPC3 and full-length N-terminal gD-tagged rat GPC3 expressed on the surface of 293 cells by FACS. Both antibodies bound to cynomolgus monkey GPC3. 15G1, but not 4A11, also bound to rat GPC3. […] The 7H1 epitope is also highly conserved between human, cynomolgus monkey, rhesus macaque, mouse, and rat GPC3, and as discussed above, antibody 7H1 detects human, cynomolgus monkey, rat, and mouse GPC3 by Western blot.

Assay [6] has as its target T5, full-length N-terminal gD-tagged rat GPC3 (Rattus norvegicus, UniProt P13265).
T5 construct: full-length N-terminal gD-tagged rat GPC3 expressed on the surface of 293 cells by FACS; gD (N); expressed in transfected cells; host or cells: 293 cells
Nature of the assay: FACS binding to rat GPC3 on 293 cells. As to conditions: rat GPC3 expressed on the surface of 293 cells. As to the method:
as §4

full-length N-terminal gD-tagged cynomolgus monkey GPC3, sequence (as listed by the source): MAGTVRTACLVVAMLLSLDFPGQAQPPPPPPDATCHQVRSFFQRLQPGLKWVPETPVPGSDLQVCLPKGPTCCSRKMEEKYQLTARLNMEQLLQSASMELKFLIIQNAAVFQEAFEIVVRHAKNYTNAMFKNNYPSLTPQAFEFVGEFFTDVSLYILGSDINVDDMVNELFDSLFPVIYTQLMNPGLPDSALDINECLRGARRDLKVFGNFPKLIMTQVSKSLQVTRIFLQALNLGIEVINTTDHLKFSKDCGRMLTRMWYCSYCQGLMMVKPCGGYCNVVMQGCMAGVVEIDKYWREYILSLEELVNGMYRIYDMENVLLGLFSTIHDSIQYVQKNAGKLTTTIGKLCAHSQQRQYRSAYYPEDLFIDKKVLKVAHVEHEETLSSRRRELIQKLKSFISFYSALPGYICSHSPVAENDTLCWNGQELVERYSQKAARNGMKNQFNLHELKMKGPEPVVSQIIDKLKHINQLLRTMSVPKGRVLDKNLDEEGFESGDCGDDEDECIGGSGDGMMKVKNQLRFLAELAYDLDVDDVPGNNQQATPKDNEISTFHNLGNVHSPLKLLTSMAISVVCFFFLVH
T5 sequence (P13265 with tags, fused parts or gaps limits assumed): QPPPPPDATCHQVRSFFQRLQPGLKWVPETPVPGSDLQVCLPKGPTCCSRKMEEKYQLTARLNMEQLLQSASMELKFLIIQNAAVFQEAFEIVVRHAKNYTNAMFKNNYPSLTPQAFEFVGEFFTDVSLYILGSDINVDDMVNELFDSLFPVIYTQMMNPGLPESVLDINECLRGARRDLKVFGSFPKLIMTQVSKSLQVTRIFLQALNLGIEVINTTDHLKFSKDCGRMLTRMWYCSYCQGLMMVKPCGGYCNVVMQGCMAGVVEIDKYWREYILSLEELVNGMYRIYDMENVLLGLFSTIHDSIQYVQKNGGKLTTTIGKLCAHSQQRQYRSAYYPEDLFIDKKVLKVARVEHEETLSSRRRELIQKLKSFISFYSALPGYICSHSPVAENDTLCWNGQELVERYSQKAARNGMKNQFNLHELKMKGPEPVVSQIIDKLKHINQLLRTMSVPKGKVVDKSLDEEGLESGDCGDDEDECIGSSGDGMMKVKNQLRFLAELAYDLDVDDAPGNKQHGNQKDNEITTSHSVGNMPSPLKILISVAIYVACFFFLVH

On to `COc1cccc2c1C(=O)c1c(O)c3c(c(O)c1C2=O)C[C@@](O)(C(=O)CO)C[C@@H]3O[C@H]1C[C@H]2[C@H](O[C@@H]3[C@@H](OC)OCCN32)[C@H](C)O1` [PNU-159682], for which the 50% effective concentration (EC50) amounted to 0.022 nM with 293S (293S, free drug, cell numbers three or 5 days after drug addition, read-out: EC50); 0.019 nM in the assay with 293_GPC3 (293_GPC3, free drug, cell numbers three or 5 days after drug addition, read-out: EC50); 0.051 nM in the assay with PC3 (PC3, free drug, cell numbers three or 5 days after drug addition, read-out: EC50); 0.042 nM with Hep3B.2.1-7 (Hep3B.2.1-7, free drug, cell numbers three or 5 days after drug addition, read-out: EC50); 0.029 nM in the assay on Huh7 (Huh7, free drug, cell numbers three or 5 days after drug addition, read-out: EC50); 0.029 nM in the assay with HepG2 (120 h, HepG2, free drug, cell numbers three or 5 days after drug addition, read-out: EC50). The 50% effective concentration (EC50) in the assay with JHH7 (120 h, JHH7, free drug, cell numbers three or 5 days after drug addition, read-out: EC50) came out at 0.038 nM; with JHH5 (JHH5, free drug, cell numbers three or 5 days after drug addition, read-out: EC50), 0.031 nM.
In the case of `C=C1C[C@H]2C=Nc3cc(OCCCCCOc4cc5c(cc4OC)C(=O)N4CC(=C)C[C@H]4C=N5)c(OC)cc3C(=O)N2C1` [SG-2057], the EC50 with 293S was found to be 0.056 nM; in the assay with 293_GPC3, 0.034 nM; in the assay with PC3, 0.122 nM; with Hep3B.2.1-7 it was 0.474 nM; in the assay on Huh7, 0.147 nM; with HepG2 (HepG2, 120 h), 0.029 nM. Further, the EC50 came out at 0.135 nM with JHH7 (JHH7, 120 h) and 0.105 nM with JHH5.

B1: 4A11: anti-GPC3 monoclonal antibody; heavy and light chain variable regions SEQ ID NOs: 10 and 11 (antibody, V domains shown)
VH: EVQLQQSAAELARPGASVRMSCRTSGYTFTTYTIHWMKQRPGQGLEWIGYINPNGGYTEYNQKFRDRTTLTADKSSSTAYMQLSSLTSEDSAVYYCTRNFDYWGQGTTLTVSS
VL: DIVMTQSPSSMYASLGERVTITCKASQDINSYLSWFQQKPGKSPKTLIYRVNRLVDGVPSRFSGSGSGQDYSLTISSLEYEDVGIYYCLQYDEFPLTLGAGTKLELK
As to B1, the “Binding by FACS” value in the assay with human GPC3 [1] is listed as “not”; in the assay with human GPC3 [2], “not”; with human GPC3 [3], “bound”; in the assay with human GPC3 [4] it was “bound”; in assay [5], “bound”; in [6] it was “not”.

B2: 15G1: anti-GPC3 monoclonal antibody; heavy and light chain variable regions SEQ ID NOs: 18 and 19 (antibody, V domains shown)
VH: EVQLLETGGGLVQPGGSRGLSCEGSGFTFSGFWMSWVRQTPGKTLEWIGDINSDGSSINYAPSIKDRFTIFRDNDKSILYLQMTNVRSEDTGTYFCVTTYGDYWGQGTTLTVSS
VL: DIVMTQSQKFMSTSVGDRVSVTCKASQNVGSHVGWYQQKSGQSPKALIYSASNRYIGVPDRFTGSGSGTDFTLTISNVQSEDLAEYFCQQYHIYPYTFGGGTRLEIK
Turning to B2, the “Binding by FACS” value with human GPC3 [1] is recorded as “not”; with human GPC3 [2] it was “bound”; in the assay with human GPC3 [3], “bound”; with human GPC3 [4], “bound”; in assay [5], “bound”; in assay [6], “bound”.
